According to patent US11304946B2, “2-hetarylpyrimidine-4-carboxamides as aryl hydrocarbon receptor antagonists” (Bayer Aktiengesellschaft, priority 2017, dated 2022):

Columns and labels:
Mouse AhR = biological target: T1, Mouse AhR (Mus musculus, UniProt P30561); experiment: Transactivation assay in mouse cell line (in vitro assay 2: antagonism); format: cell-based; settings: Hepa 1c1c7 cells, AHR inducible (DRE) firefly luciferase reporter, 200 μM kynurenic acid, 20 hours
T1 sequence (P30561 1-848): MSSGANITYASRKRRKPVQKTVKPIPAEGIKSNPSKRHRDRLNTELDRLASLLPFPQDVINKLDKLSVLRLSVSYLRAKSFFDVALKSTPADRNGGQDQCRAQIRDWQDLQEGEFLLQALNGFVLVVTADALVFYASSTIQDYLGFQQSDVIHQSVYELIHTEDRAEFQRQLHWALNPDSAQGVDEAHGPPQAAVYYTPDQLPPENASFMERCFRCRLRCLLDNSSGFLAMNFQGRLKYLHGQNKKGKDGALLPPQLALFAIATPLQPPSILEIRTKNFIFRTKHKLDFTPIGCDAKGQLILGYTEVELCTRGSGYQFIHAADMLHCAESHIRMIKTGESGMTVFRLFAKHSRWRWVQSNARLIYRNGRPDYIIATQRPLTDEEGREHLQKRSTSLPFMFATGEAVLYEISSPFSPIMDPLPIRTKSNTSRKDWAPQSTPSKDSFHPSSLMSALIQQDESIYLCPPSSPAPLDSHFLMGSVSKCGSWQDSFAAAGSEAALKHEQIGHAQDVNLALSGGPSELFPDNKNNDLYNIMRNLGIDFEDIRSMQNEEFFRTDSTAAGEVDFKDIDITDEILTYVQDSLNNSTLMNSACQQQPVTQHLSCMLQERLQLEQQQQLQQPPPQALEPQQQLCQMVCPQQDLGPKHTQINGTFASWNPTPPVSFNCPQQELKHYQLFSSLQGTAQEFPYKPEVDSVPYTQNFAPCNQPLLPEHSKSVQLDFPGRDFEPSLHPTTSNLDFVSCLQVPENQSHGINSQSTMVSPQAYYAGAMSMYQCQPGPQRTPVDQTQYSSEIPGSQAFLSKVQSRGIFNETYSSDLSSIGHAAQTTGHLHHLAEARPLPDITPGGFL
Procedure: Transactivation Assay in Mouse Cell Line (In Vitro Assay 2)
(§1) Transactivation assay was carried out in Hepa 1c1c7 cells (ATCC #CRL-2026) endogenously expressing AHR. In addition the cells were stably transfected with an AHR inducible firefly luciferase reporter gene construct that carried AHR-binding sites (DRE) in its promoter. Kynurenic acid is an endogenous AHR activating ligand and was used to prestimulate test cells prior to testing the antagonistic properties of compounds.
In Vitro Assay 2: Antagonism in Mouse Cell Line
Firefly luciferase activity was determined by the SteadyGlo Luciferase Assay System (Promega, #E2550).

Human AhR = biological target: T2, Human AhR (Homo sapiens, UniProt P35869); experiment: Transactivation assay in human cell line (in vitro assay 1: antagonism); format: cell-based; settings: U87 glioblastoma cells, AHR inducible (DRE) firefly luciferase reporter, 150 μM kynurenic acid, 20 hours
T2 construct: host or cells: U87 glioblastoma cells, stably transfected with DRE-driven firefly luciferase and constitutive renilla reporter constructs
T2 sequence (P35869 11-848): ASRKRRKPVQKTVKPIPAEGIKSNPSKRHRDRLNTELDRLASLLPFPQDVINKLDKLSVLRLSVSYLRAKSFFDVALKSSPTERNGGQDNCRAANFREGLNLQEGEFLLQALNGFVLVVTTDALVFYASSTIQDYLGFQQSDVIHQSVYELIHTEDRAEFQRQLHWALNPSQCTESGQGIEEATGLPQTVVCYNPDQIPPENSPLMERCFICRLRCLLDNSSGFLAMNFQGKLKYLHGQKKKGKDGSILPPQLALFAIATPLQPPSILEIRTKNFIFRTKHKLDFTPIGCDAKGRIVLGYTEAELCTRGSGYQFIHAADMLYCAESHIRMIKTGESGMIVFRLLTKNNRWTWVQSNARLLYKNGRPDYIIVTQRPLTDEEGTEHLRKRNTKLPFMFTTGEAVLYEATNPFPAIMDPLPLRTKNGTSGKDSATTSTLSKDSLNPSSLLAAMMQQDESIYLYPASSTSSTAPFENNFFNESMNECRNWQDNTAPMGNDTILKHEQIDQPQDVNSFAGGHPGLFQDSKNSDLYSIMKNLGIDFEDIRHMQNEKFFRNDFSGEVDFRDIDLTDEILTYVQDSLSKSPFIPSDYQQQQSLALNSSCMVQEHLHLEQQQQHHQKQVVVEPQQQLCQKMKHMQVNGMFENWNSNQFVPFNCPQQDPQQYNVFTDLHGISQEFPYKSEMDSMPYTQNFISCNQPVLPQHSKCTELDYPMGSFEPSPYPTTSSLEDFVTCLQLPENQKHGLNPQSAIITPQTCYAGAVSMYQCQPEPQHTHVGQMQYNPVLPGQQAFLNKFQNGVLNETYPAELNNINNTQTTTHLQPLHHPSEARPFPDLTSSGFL
Procedure: Transactivation Assay in Human Cell Line (In Vitro Assay 1)
as §1, with “U87 glioblastoma” for “Hepa 1c1c7”, “(ATCC)” for “(ATCC #CRL-2026)”, “its promoter and a renilla reporter gene construct with constitutively active” for “its”
In Vitro Assay 1: Antagonism in Human Cell Line
Firefly luciferase and Renilla activity was determined by the DualGlo Luciferase Assay System (Promega, #2920). Renilla activity was used to assess toxic effects of compounds.

IC50 (Mouse AhR) | IC50 (Human AhR) | Compound
2.03 nM | 0.885 nM | C[C@@H](CO)NC(=O)c1cc(-c2ccc(OC(F)(F)F)cc2)nc(-c2cccnc2)n1 [Example 1, N-[(2S)-1-hydroxypropan-2-yl]-2-(pyridin-3-yl)-6-[4-(trifluoromethoxy)phenyl]pyrimidine-4-carboxamide]
20.3 nM | 2.88 nM | C[C@H](CO)NC(=O)c1cc(-c2ccc(OC(F)(F)F)cc2)nc(-c2cccnc2)n1 [Example 2, N-[(2R)-1-hydroxypropan-2-yl]-2-(pyridin-3-yl)-6-[4-(trifluoromethoxy)phenyl]pyrimidine-4-carboxamide]
2.92 nM | 3.68 nM | C[C@@H](CO)NC(=O)c1cc(-c2ccc(OC(F)(F)F)cc2)nc(-c2cnn(C)c2)n1 [Example 5, N-[(2S)-1-hydroxypropan-2-yl]-2-(1-methyl-1H-pyrazol-4-yl)-6-[4-(trifluoromethoxy)phenyl]pyrimidine-4-carboxamide]
15 nM | 7.53 nM | Cn1cc(-c2nc(C(=O)NCC(C)(C)O)cc(-c3ccc(OC(F)(F)F)cc3)n2)cn1 [Example 6, N-(2-hydroxy-2-methylpropyl)-2-(1-methyl-1H-pyrazol-4-yl)-6-[4-(trifluoromethoxy)phenyl]pyrimidine-4-carboxamide]
4.8 nM | – | COc1ccncc1-c1nc(C(=O)NCC(C)(C)O)cc(-c2ccc(Cl)cc2)n1 [Example 61, 6-(4-chlorophenyl)-N-(2-hydroxy-2-methylpropyl)-2-(4-methoxypyridin-3-yl)pyrimidine-4-carboxamide]
– | 741 nM | C[C@@H](CO)NC(=O)c1cc(-c2ccc(Cl)cc2)nc(-c2ccc(C#N)nc2)n1 [Example 78, 6-(4-chlorophenyl)-2-(6-cyanopyridin-3-yl)-N-[(2S)-1-hydroxypropan-2-yl]pyrimidine-4-carboxamide]
– | 1040 nM | C[C@@H](CO)NC(=O)c1cc(-c2ccc(Cl)cc2)nc(-c2cn[nH]c2)n1 [Example 81, 6-(4-chlorophenyl)-N-[(2S)-1-hydroxypropan-2-yl]-2-(1H-pyrazol-4-yl)pyrimidine-4-carboxamide]
– | 215 nM | Cc1n[nH]cc1-c1nc(C(=O)N[C@@H](C)CO)cc(-c2ccc(Cl)cc2)n1 [Example 82, 6-(4-chlorophenyl)-N-[(2S)-1-hydroxypropan-2-yl]-2-(3-methyl-1H-pyrazol-4-yl)pyrimidine-4-carboxamide]
– | 17600 nM | C[C@@H](CO)NC(=O)c1cc(-c2ccc(Cl)cc2)nc(-c2cnc(Cl)nc2)n1 [Example 84, 2′-chloro-6-(4-chlorophenyl)-N-[(2S)-1-hydroxypropan-2-yl][2,5′-bipyrimidine]-4-carboxamide]
1.97 nM | – | CC(C)[C@@H](CO)NC(=O)c1cc(-c2ccc(OC(F)(F)F)cc2)nc(-c2cnn(C)c2)n1 [Example 116, N-[(2S)-1-hydroxy-3-methylbutan-2-yl]-2-(1-methyl-1H-pyrazol-4-yl)-6-[4-(trifluoromethoxy)phenyl]pyrimidine-4-carboxamide]
10.2 nM | – | CC(C)(O)CNC(=O)c1cc(-c2ccc(C(F)F)cc2)nc(-c2cccnc2)n1 [Example 120, 6-[4-(difluoromethyl)phenyl]-N-(2-hydroxy-2-methylpropyl)-2-(pyridin-3-yl)pyrimidine-4-carboxamide]

More lines, now with the values behind:

Compound | IC50 (Mouse AhR) | IC50 (Human AhR)
Cn1cc(-c2nc(C(=O)N[C@@H]3CC[C@H]3O)cc(-c3ccc(OC(F)(F)F)cc3)n2)cn1 (relative stereo) [Example 86, N-[(trans)-2-hydroxycyclobutyl]-2-(1-methyl-1H-pyrazol-4-yl)-6-[4-(trifluoromethoxy)phenyl]pyrimidine-4-carboxamide] | 7.07 nM | 5.74 nM
Cn1cc(-c2nc(C(=O)N[C@H]3CCCC[C@@H]3O)cc(-c3ccc(OC(F)(F)F)cc3)n2)cn1 (relative stereo) [Example 92, N-[(trans)-2-hydroxycyclohexyl]-2-(1-methyl-1H-pyrazol-4-yl)-6-[4-(trifluoromethoxy)phenyl]pyrimidine-4-carboxamide] | 5.79 nM | 4.27 nM
Cn1cc(-c2nc(C(=O)N[C@@H]3CS(=O)(=O)C[C@H]3O)cc(-c3ccc(OC(F)(F)F)cc3)n2)cn1 (relative stereo) [Example 100, N-[(trans)-4-hydroxy-1,1-dioxo-1lambda^6-thiolan-3-yl]-2-(1-methyl-1H-pyrazol-4-yl)-6-[4-(trifluoromethoxy)phenyl]pyrimidine-4-carboxamide] | 8.18 nM | 10.1 nM
Cn1cc(-c2nc(C(=O)N[C@@H]3COC[C@@H]3O)cc(-c3ccc(OC(F)(F)F)cc3)n2)cn1 (relative stereo) [Example 105, N-[(cis)-4-hydroxyoxolan-3-yl]-2-(1-methyl-1H-pyrazol-4-yl)-6-[4-(trifluoromethoxy)phenyl]pyrimidine-4-carboxamide] | 6.01 nM | 8.48 nM
Cn1cc(-c2nc(C(=O)N[C@H]3CCC[C@@H]3O)cc(-c3ccc(OC(F)(F)F)cc3)n2)cn1 (stereo in doubt) [Example 87, N-[(trans)-2-hydroxycyclopentyl]-2-(1-methyl-1H-pyrazol-4-yl)-6-[4-(trifluoromethoxy)phenyl]pyrimidine-4-carboxamide] | 3.93 nM | 5.33 nM
Cn1cc(-c2nc(C(=O)N[C@@H]3CCC[C@H]3O)cc(-c3ccc(OC(F)(F)F)cc3)n2)cn1 (stereo in doubt) [Example 96, N-[(trans)-2-hydroxycyclopentyl]-2-(1-methyl-1H-pyrazol-4-yl)-6-[4-(trifluoromethoxy)phenyl]pyrimidine-4-carboxamide] | 56.1 nM | 53.2 nM
CC(C)(O)CNC(=O)c1cc(-c2ccc(OC(F)(F)F)cc2)nc(-c2cccnc2)n1 [Example 3, N-(2-hydroxy-2-methylpropyl)-2-(pyridin-3-yl)-6-[4-(trifluoromethoxy)phenyl]pyrimidine-4-carboxamide] | 7.81 nM | 3.86 nM
CC(C)(O)CNC(=O)c1cc(-c2ccc(C(F)(F)F)cc2)nc(-c2cccnc2)n1 [Example 7, N-(2-hydroxy-2-methylpropyl)-2-(pyridin-3-yl)-6-[4-(trifluoromethyl)phenyl]pyrimidine-4-carboxamide] | 12.7 nM | –
Cn1cc(-c2nc(C(=O)NCC3(O)CCC3)cc(-c3ccc(OC(F)(F)F)cc3)n2)cn1 [Example 97, N-[(1-hydroxycyclobutyl)methyl]-2-(1-methyl-1H-pyrazol-4-yl)-6-[4-(trifluoromethoxy)phenyl]pyrimidine-4-carboxamide] | – | 4.99 nM
